Source: patent publication US20140322761A1, “METHOD OF PREPARING SAMPLE FOR NUCLEIC ACID AMPLIFICATION REACTION, NUCLEIC ACID AMPLIFICATION METHOD, AND REAGENT AND MICROCHIP FOR SOLID PHASE NUCLEIC ACID AMPLIFICATION REACTION” (Sony Corporation, priority 2013, published 2014)

Columns and labels:
RNase A = target: T1, RNase A (Bos taurus, UniProt P61823); test: RNase A activity, RNase Alert QC test Kit (Example 3); format: biochemical; conditions: RNase A 0.003 U/mL, 37° C., 60 minutes, compared to Comparative Example 2 without SDS
T1 sequence (P61823 27-150): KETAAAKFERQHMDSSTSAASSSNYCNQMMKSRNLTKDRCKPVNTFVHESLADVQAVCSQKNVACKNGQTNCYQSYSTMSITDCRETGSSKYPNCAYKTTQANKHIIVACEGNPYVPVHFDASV
Experimental: RNase Alert QC test Kit (Ambion) was used for measuring the activity of the RNase A. The RNase A was added to the solution containing RNaseAlert substrate with a final concentration of 0.003 U/mL. The SDS was added to the RNase A solution with a final concentration of 0.1% or 1.0% each to be set as Test Example 1 and Test Example 2. […] Test Examples 1 and 2 and Comparative Examples 1 and 2 were kept warm for 60 minutes at a temperature of 37° C. A fluorescent material (FAM) is bonded with a quencher in the RNaseAlert substrate. The fluorescent material emits when the fluorescent material is separated from the quencher using the RNase A. Excitation light and luminescence of the fluorescence was measured to be 490 nm and 520 nm respectively, using Chromo4 (Bio-rad).

[1] = system: RNase A contained in plasma; test: Activity of RNase A contained in diluted bovine plasma, RNase Alert QC test Kit (Example 4); format: biochemical; conditions: 37° C., 60 minutes
Experimental: In Example 4, bovine plasma was used as an organism derived sample. The bovine plasma was used after being diluted 10 times or 20 times in advance. Similarly to Example 3, RNase Alert QC test Kit (Ambion) was used for measuring the activity of the RNase A. RNaseAlert substrate and SDS were added to the 10 times diluted bovine plasma such that final concentrations of the SDS become 0.05%, 0.1%, 0.2%, 0.3%, 0.4%, and 0.5% respectively to be set as Test Examples 1 to 6. In addition, RNaseAlert substrate and SDS were added to the 20 times diluted bovine plasma such that final concentrations of the SDS become 0.05%, 0.1%, 0.2%, 0.3%, 0.4%, and 0.5% respectively to be set as Test Examples 7 to 12. In addition, 10 times diluted bovine plasma to which SDS is not added was set as Comparative Example 1 and 20 times diluted bovine plasma to which SDS is not added was set as Comparative Example 2. Test Examples 1 to 12 and Comparative Examples 1 and 2 were kept warm for 60 minutes at a temperature of 37° C. and the activity of the RNase A was measured during the time period using the same method as in Example 3.

Bifidobacterium bifidum = test: Nucleic acid extraction from bacteria by heat treatment with SDS, followed by LAMP (Example 5); conditions: HPβCD 5% (w/v), LAMP 63° C.
Experimental: In Example 5, Bifidobacterium bifidum from which it is comparatively difficult to extract the nucleic acid was used as bacteria. The Bifidobacterium bifidum (NBRC number: 100015) was obtained from Biological Resource Center (NBRC) of National In statute of Technology and Evaluation (NITE). In addition, the nucleic acid amplification reaction of a genome of Bifidobacterium bifidum was performed using the LAMP method and an LAMP reaction reagent (Eiken Chemical Co., Ltd, Loopamp® DNA Amplification reagent Kit) was used as a sample for the nucleic acid amplification reaction.
A quenching probe shown in Table 3 was used for detecting an amplification nucleic acid chain. In Example 5, excitation light and luminescence of light derived from a fluorescent material FAM bonded with the quenching probe was measured to be 490 nm and 520 nm respectively, using Chromo4 (Bio-rad).
A cell suspension in which the Bifidobacterium bifidum is prepared to be 100 copies/ml. In Example 5, as Test Examples 3 to 5, SDS was added to the cell suspension at the time of heat treatment such that concentrations of SDS become 0.01%, 0.1%, and 1%, respectively (refer to Table 4). In addition, as Test Examples 1 and 2 and Comparative Example 1, cell suspensions to which SDS was not added was prepared (refer to Table 4). The heat treatment was performed for 3 minutes at a temperature of 90° C. for Test Examples 1 and 3 to 5 before starting the nucleic acid amplification reaction. In addition, sonication was performed for Test Example 2 before starting the nucleic acid amplification reaction. After the heating process or the sonication, a LAMP reaction reagent and a primer and quenching probe of Table 3 were added to Test Examples 1 to 5. Furthermore, hydroxyprophyl-β-cyclodextrin (Tokyo Chemical Industry Co., Ltd.) was added to Test Examples 1 to 5 such that a final concentration of the hydroxyprophyl-β-cyclodextrin becomes 5% (w/v). A sample for nucleic acid amplification reaction, a primer, a quenching probe, and HPβCD were added to Comparative Example 1 as well. […]

[2] = system: nucleic acid amplification reaction (genome of Bifidobacterium bifidum as template); test: LAMP reaction with SDS and HPβCD, bacterial genome as template (Example 6); format: biochemical
Experimental: In Example 6, nucleic acid amplification reaction was performed using the LAMP method using a genome of Bifidobacterium bifidum as a template nucleic acid. In addition, a sample for nucleic acid amplification reaction, a primer, and a quenching probe used for the nucleic acid amplification reaction were the same as those in Example 5. HPβCD was prepared such that a final concentration of HPβCD in a nucleic acid amplification reaction solution becomes 2.5%. Furthermore, SDS was added thereto such that the SDS concentrations become 0%, 0.05%, 0.1%, 0.2%, 0.3%, 0.4%, 0.5%, and 1.0% to be set as Test Examples 1 to 8 respectively. In addition, HPβCD was prepared such that a final concentration of HPβCD in a nucleic acid amplification reaction solution becomes 5.0%. Furthermore, SDS was added thereto such that the SDS concentrations become 0%, 0.05%, 0.1%, 0.2%, 0.3%, 0.4%, 0.5%, and 1.0% to be set as Test Examples 9 to 16 respectively. In addition, nucleic acid amplification reaction solutions prepared such that the HPβCD concentration becomes 0% and the SDS concentrations become 0%, 0.01%, and 0.1% to be set as Comparative Examples 1 to 3.

Row | Compound | activity of the RNase A (RNase A; SDS 0.1% (Test Example 1)) | activity of the RNase A (RNase A; SDS 1.0% (Test Example 2)) | SDS concentration with which the activity of the RNase A was suppressed ([1]; bovine plasma diluted 10 times (Test Examples 5 and 6)) | SDS concentration with which the activity of the RNase A was suppressed ([1]; bovine plasma diluted 20 times (Test Examples 9 to 12)) | Tt value (Bifidobacterium bifidum; SDS 0.01% at heat treatment, 3 minutes at 90° C. (Test Example 3)) | Tt value (Bifidobacterium bifidum; SDS 0.1% at heat treatment, 3 minutes at 90° C. (Test Example 4)) | amplification of the nucleic acid (Bifidobacterium bifidum; SDS 1% at heat treatment, 3 minutes at 90° C. (Test Example 5)) | SDS concentration at which amplification of the nucleic acid was confirmed ([2]; HPβCD not added) | amplification of the nucleic acid ([2]; HPβCD not added, SDS concentration 0.1%) | HPβCD concentration relative to the SDS concentration to suppress the inhibition of the LAMP reaction due to the SDS ([2]; in the nucleic acid amplification reaction solution)
1 | CCCCCCCCCCCCOS(=O)(=O)[O-].[Na+] [SDS, sodium dodecyl sulfate] | suppressed | suppressed | ≥ 0.4% | ≥ 0.2% | 17.5 min | 14.2 min | no amplification of the nucleic acid | ≤ 0.01% | No amplification of the nucleic acid was confirmed | 
2 | hydroxyprophyl-β-cyclodextrin [HPβCD] |  |  |  |  |  |  |  |  |  | ≥ 8 times
